One data set relates to brain ChE. Description: brain ChE activity in parathion-treated rats. The format is in vivo, rat.
The format of data set [1] is in vivo, rat. As to conditions: after parathion 8 mg/kg oral; 60 min.
A further data set relates to female Long-Evans rats. To be noted: out of 5 rats dosed with parathion 8 mg/kg oral; 60 min.
A further data set deals with rat. As to conditions: ref Gaines, 1960; cited from earlier work.
Substrate in data set [2]: CC1=CC(=O)c2ccccc2C1=O
Description: CPR-mediated redox cycling, hydroxyl radical formation. In kind it is biochemical, human. To be noted: other: menadione; Fe/EDTA, terephthalate; pH 7.8; 37.0 °C.

Substrate in data set [3]: CC1=CC(=O)c2ccccc2C1=O
Description: CPR-mediated redox cycling, H2O2 formation. In kind it is biochemical, human. As to conditions: other: menadione as redox cycling substrate of CPR; Amplex Red; pH 7.8; 37.0 °C.

[4] abbreviates: parathion 8 mg/kg oral gavage alone, 60 min.

`CC1(S(=O)(=O)[O-])CC(=O)c2ccccc2C1=O.[Na+]` (centres unmarked) [menadione bisulfite]: the “parathion-induced inhibition of brain cholinesterase activity” value in the data set with brain ChE (menadione bisulfite 40 mg/kg, ip) was “reduced”.
With `CCOP(=O)(OCC)Oc1ccc([N+](=O)[O-])cc1` [paraoxon, diethyl 4-nitrophenyl phosphate], the “paraoxon levels in serum, liver and brain” value in data set [1] is given as “could not be detected”.
As to `CCOP(=S)(OCC)Oc1ccc([N+](=O)[O-])cc1` [parathion, diethyl 4-nitrophenyl phosphorothionate], the “rats that died before the end of the observation period” value in the data set on female Long-Evans rats is 1. For the same molecule, in the data set with brain ChE (setting [4]), the “forebrain ChE activity inhibited” value came to 95% and the “hindbrain ChE activity inhibited” value was 87%. Also, the “rat oral LD50” value with rat is 2 to 13 mg/kg.

B1: recombinant human CPR (Homo sapiens) (protein)
chain: MGDSHVDTSSTVSEAVAEEVSLFSMTDMILFSLIVGLLTYWFLFRKKKEEVPEFTKIQTLTSSVRESSFVEKMKKTGRNIIVFYGSQTGTAEEFANRLSKDAHRYGMRGMSADPEEYDLADLSSLPEIDNALVVFCMATYGEGDPTDNAQDFYDWLQETDVDLSGVKFAVFGLGNKTYEHFNAMGKYVDKRLEQLGAQRIFELGLGDDDGNLEEDFITWREQFWPAVCEHFGVEATGEESSIRQYELVVHTDIDAAKVYMGEMGRLKSYENQKPPFDAKNPFLAAVTTNRKLNQGTERHLMHLELDISDSKIRYESGDHVAVYPANDSALVNQLGKILGADLDVVMSLNNLDEESNKKHPFPCPTSYRTALTYYLDITNPPRTNVLYELAQYASEPSEQELLRKMASSSGEGKELYLSWVVEARRHILAILQDCPSLRPPIDHLCELLPRLQARYYSIASSSKVHPNSVHICAVVVEYETKAGRINKGVATNWLRAKEPAGENGGRALVPMFVRKSQFRLPFKATTPVIMVGPGTGVAPFIGFIQERAWLRQQGKEVGETLLYYGCRRSDEDYLYREELAQFHRDGALTQLNVAFSREQSHKVYVQHLLKQDREHLWKLIEGGAHIYVCGDARNMARDVQNTFYDIVAELGAMEHAQAVDYIKKLMTKGRYSLDVWS
Turning to B1, the Km (in general, the concentration of substrate that gives half-maximal velocity) in data set [2] turned out to be 1.7 µM; in data set [3], 4.1 µM.

Values taken from paper PMC4579064 (Toxicology and applied pharmacology, 2015).
